# Laboratory results from US20090170178A1, “Cell stimulating device and cell stimulating method” (priority 2003, published 2009).
# How the values were obtained:
# Type in all cases: cell-based, mouse
# [1] = system: GABAA receptor β2 subunit mRNA in cultured granule cells; settings: stimulation at 1.0 and 100 Hz; FIG. 9C; MK801 25 μM, CNQX 10 μM
# [2] = system: cultured granule cells (release of NRG); assay: Release of NRG into conditioned medium, read by CREB phosphorylation in granule cells; settings: living cultured granule cells
# Experimental: In the case of FIG. 6D, CREB phosphorylation following stimulation of each conditioned medium was confirmed using cerebellar granule cells. Serum-starved cerebellar granule cells were treated (for 5 to 10 minutes) with conditioned media that had been recovered from the culture products of pontine nuclei neurons and granule cells. The conditioned medium recovered from pontine nuclei neurons was used for stimulation in the cases of a, b, and c. In the cases of d, e, and f, a conditioned medium was prepared from the culture product of granule cells.
# Stimulated granule cells were immobilized, followed by staining with a phospho-CREB antibody. The soluble forms that had been released after PMA stimulation (60 minutes) were concentrated and added to cultured granule cells. In panels c and f, the conditioned media should contain endogenous NRG and recombinant NRG. The difference between panels b and e indicates a function of NRG cleaved from recombinant mNRG. FIGS. 6E and 6F show the results of identification of an amino acid sequence that is necessary for proteolysis with the use of an ErbB and CREB phosphorylation assay system. The […] sequence was located above extracellular portions of transmembrane domains that were aligned in parallel. When the sequence was subjected to deletion or mutation of lysine to glycine, proteolysis efficiency was inhibited as shown in FIG. 6F. […]
# [3] = system: NMDA receptor NR2C subunit mRNA in cultured granule cells
smiles,measurement,setting,value
N#Cc1cc2[nH]c(=O)c(=O)[nH]c2cc1[N+](=O)[O-] [CNQX],β2 transcription,[1],blocked
[Cl-].[K+] [KC1],Obvious release of NRG,[2],not observed
C[C@]12N[C@H](Cc3ccccc31)c1ccccc12 [MK801],β2 transcription,[1],blocked
same,Increase of NR2C transcription/expression,[3],blocked NR2C elevation in a particularly strong manner
same,NR2C transcription / expression of NR2C mRNA,"[3]; level increased at 1 and 100 Hz, FIG. 9C, MK801 25 μM",strongly blocked
